Here are results for 2 compounds from publication PMC10004267, “Resveratrol, a New Allosteric Effector of Hemoglobin, Enhances Oxygen Supply Efficiency and Improves Adaption to Acute Severe Hypoxia” (Molecules, 2023).

The target of test [1] is T1, hemoglobin of adult (HbA) (Homo sapiens, UniProt P68871).
T1 construct: gene HBB; HbA tetramer purified from human whole blood; with hemoglobin subunit alpha (HBA1)
Kind of test: SPR (OpenSPR, HbA immobilized), control compound. The test is classed as binding.

The target in test [2] is T2, hemoglobin of adult (HbA) (Homo sapiens, UniProt P68871+P69905).
T2 construct: gene HBA1; HbA tetramer purified from human whole blood; with hemoglobin subunit beta (HBB)
Kind of test: SPR (OpenSPR, HbA immobilized on COOH chip, one-to-one model); supported by thermal shift (Tm1) and P50 shift. In kind it is binding.

T2 sequence (P69905 2-142): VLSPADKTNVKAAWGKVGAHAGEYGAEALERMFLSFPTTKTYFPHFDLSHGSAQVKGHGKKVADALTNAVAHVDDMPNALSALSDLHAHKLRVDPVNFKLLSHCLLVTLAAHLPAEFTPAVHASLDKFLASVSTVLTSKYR
T2 sequence (P68871 2-147): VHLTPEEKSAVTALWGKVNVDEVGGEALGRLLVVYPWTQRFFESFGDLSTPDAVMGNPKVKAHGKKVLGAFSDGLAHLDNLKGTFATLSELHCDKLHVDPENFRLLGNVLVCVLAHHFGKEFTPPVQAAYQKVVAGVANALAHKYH
T1 sequence (P68871 2-147): as above
T1 sequence (P69905 2-142 partner): as the sequence (P69905 2-142) above

By Kd is commonly meant the free concentration of one partner at which half of the binding sites on the other are occupied at equilibrium, for simple one-to-one binding. As to `O=C(O)C(COP(=O)(O)O)OP(=O)(O)O` (centres unmarked) [2,3-DPG, 2,3-Diphosphoglycerate], binding in test [1] was put at a Kd of 462 µM.
Take `Oc1ccc(/C=C/c2cc(O)cc(O)c2)cc1` [RSV, 3,4′,5-trihydroxy-trans-stilbene]: the Kd in test [2] stood at 48.6 µM.
